{"source": "ChEMBL document CHEMBL4680343", "about": "“Nosiheptide analogues as potential antibacterial agents via dehydroalanine region modifications: Semi-synthesis, antimicrobial activity and molecular docking study” (2021)", "type_in_all_cases": "functional", "conditions_in_all_cases": "time 16-20 hrs", "key": {"[1]": {"tested_on": "Enterococcus faecium", "experiment": "Antimicrobial activity against vancomycin-resistant Enterococcus faecium assessed as inhibition of microbial growth incubated for 16 to 20 hrs under ambient air condition by broth microdilution assay"}, "[2]": {"tested_on": "Staphylococcus aureus", "experiment": "Antimicrobial activity against Staphylococcus aureus ATCC 25923 assessed as inhibition of microbial growth incubated for 16 to 20 hrs under ambient air condition by broth microdilution assay"}, "[3]": {"tested_on": "Staphylococcus aureus", "experiment": "Antimicrobial activity against methicillin-resistant Staphylococcus aureus assessed as inhibition of microbial growth incubated for 16 to 20 hrs under ambient air condition by broth microdilution assay"}}}
{"smiles": "C/C=C1\\NC(=O)[C@H]([C@@H](C)O)NC(=O)c2csc(n2)-c2cc(O)c(-c3nc(C(=O)NC(CNc4ccccc4I)C(N)=O)cs3)nc2-c2csc(n2)[C@@H]2CSC(=O)c3[nH]c4cccc(c4c3C)COC(=O)[C@H](O)C[C@H](NC(=O)c3csc1n3)c1nc(cs1)C(=O)N2", "note": "(stereo partly drawn)", "values": [{"measurement": "MIC", "setting": "[1]", "result": 0.015, "unit": "µg/mL"}, {"measurement": "MIC", "setting": "[2]", "result": 0.062, "unit": "µg/mL"}, {"measurement": "MIC", "setting": "[3]", "result": 0.0078, "unit": "µg/mL"}]}
{"smiles": "C/C=C1\\NC(=O)[C@H]([C@@H](C)O)NC(=O)c2csc(n2)-c2cc(O)c(-c3nc(C(=O)NC(CNc4ccccc4C)C(N)=O)cs3)nc2-c2csc(n2)[C@@H]2CSC(=O)c3[nH]c4cccc(c4c3C)COC(=O)[C@H](O)C[C@H](NC(=O)c3csc1n3)c1nc(cs1)C(=O)N2", "note": "(stereo partly drawn)", "values": [{"measurement": "MIC", "setting": "[1]", "result": 0.015, "unit": "µg/mL"}, {"measurement": "MIC", "setting": "[2]", "result": 0.015, "unit": "µg/mL"}, {"measurement": "MIC", "setting": "[3]", "result": "< 0.0039", "unit": "µg/mL"}]}
{"smiles": "C/C=C1\\NC(=O)[C@H]([C@@H](C)O)NC(=O)c2csc(n2)-c2cc(O)c(-c3nc(C(=O)NC(CNc4ccc(F)cc4)C(N)=O)cs3)nc2-c2csc(n2)[C@@H]2CSC(=O)c3[nH]c4cccc(c4c3C)COC(=O)[C@H](O)C[C@H](NC(=O)c3csc1n3)c1nc(cs1)C(=O)N2", "note": "(stereo partly drawn)", "values": [{"measurement": "MIC", "setting": "[1]", "result": 0.031, "unit": "µg/mL"}, {"measurement": "MIC", "setting": "[2]", "result": 0.031, "unit": "µg/mL"}, {"measurement": "MIC", "setting": "[3]", "result": 0.015, "unit": "µg/mL"}]}
{"smiles": "C/C=C1\\NC(=O)[C@H]([C@@H](C)O)NC(=O)c2csc(n2)-c2cc(O)c(-c3nc(C(=O)NC(CNc4cccc(C)c4)C(N)=O)cs3)nc2-c2csc(n2)[C@@H]2CSC(=O)c3[nH]c4cccc(c4c3C)COC(=O)[C@H](O)C[C@H](NC(=O)c3csc1n3)c1nc(cs1)C(=O)N2", "note": "(stereo partly drawn)", "values": [{"measurement": "MIC", "setting": "[1]", "result": 0.015, "unit": "µg/mL"}, {"measurement": "MIC", "setting": "[2]", "result": 0.031, "unit": "µg/mL"}, {"measurement": "MIC", "setting": "[3]", "result": "< 0.0039", "unit": "µg/mL"}]}
{"smiles": "C/C=C1\\NC(=O)[C@H]([C@@H](C)O)NC(=O)c2csc(n2)-c2cc(O)c(-c3nc(C(=O)NC(CNc4ccc(Br)cc4)C(N)=O)cs3)nc2-c2csc(n2)[C@@H]2CSC(=O)c3[nH]c4cccc(c4c3C)COC(=O)[C@H](O)C[C@H](NC(=O)c3csc1n3)c1nc(cs1)C(=O)N2", "note": "(stereo partly drawn)", "values": [{"measurement": "MIC", "setting": "[1]", "result": 0.031, "unit": "µg/mL"}, {"measurement": "MIC", "setting": "[2]", "result": 0.062, "unit": "µg/mL"}, {"measurement": "MIC", "setting": "[3]", "result": 0.015, "unit": "µg/mL"}]}
{"smiles": "C/C=C1\\NC(=O)[C@H]([C@@H](C)O)NC(=O)c2csc(n2)-c2cc(O)c(-c3nc(C(=O)NC(CNc4cccc(F)c4)C(N)=O)cs3)nc2-c2csc(n2)[C@@H]2CSC(=O)c3[nH]c4cccc(c4c3C)COC(=O)[C@H](O)C[C@H](NC(=O)c3csc1n3)c1nc(cs1)C(=O)N2", "note": "(stereo partly drawn)", "values": [{"measurement": "MIC", "setting": "[1]", "result": 0.031, "unit": "µg/mL"}, {"measurement": "MIC", "setting": "[2]", "result": 0.031, "unit": "µg/mL"}, {"measurement": "MIC", "setting": "[3]", "result": 0.015, "unit": "µg/mL"}]}
{"smiles": "C/C=C1\\NC(=O)[C@H]([C@@H](C)O)NC(=O)c2csc(n2)-c2cc(O)c(-c3nc(C(=O)NC(CNc4cccc(I)c4)C(N)=O)cs3)nc2-c2csc(n2)[C@@H]2CSC(=O)c3[nH]c4cccc(c4c3C)COC(=O)[C@H](O)C[C@H](NC(=O)c3csc1n3)c1nc(cs1)C(=O)N2", "note": "(stereo partly drawn)", "values": [{"measurement": "MIC", "setting": "[1]", "result": 0.0078, "unit": "µg/mL"}, {"measurement": "MIC", "setting": "[2]", "result": 0.031, "unit": "µg/mL"}, {"measurement": "MIC", "setting": "[3]", "result": "< 0.0039", "unit": "µg/mL"}]}
{"smiles": "C=C(NC(=O)c1csc(-c2nc3c(cc2O)-c2nc(cs2)C(=O)N[C@@H]([C@@H](C)O)C(=O)N/C(=C\\C)c2nc(cs2)C(=O)N[C@H]2C[C@@H](O)C(=O)OCc4cccc5[nH]c(c(C)c45)C(=O)SC[C@H](NC(=O)c4csc2n4)c2nc-3cs2)n1)C(N)=O", "values": [{"measurement": "MIC", "setting": "[1]", "result": 0.031, "unit": "µg/mL"}, {"measurement": "MIC", "setting": "[2]", "result": 0.062, "unit": "µg/mL"}, {"measurement": "MIC", "setting": "[3]", "result": 0.0078, "unit": "µg/mL"}]}
{"smiles": "C/C=C1\\NC(=O)[C@H]([C@@H](C)O)NC(=O)c2csc(n2)-c2cc(O)c(-c3nc(C(=O)NC(CNc4cccc(C(F)(F)F)c4)C(N)=O)cs3)nc2-c2csc(n2)[C@@H]2CSC(=O)c3[nH]c4cccc(c4c3C)COC(=O)[C@H](O)C[C@H](NC(=O)c3csc1n3)c1nc(cs1)C(=O)N2", "note": "(stereo partly drawn)", "values": [{"measurement": "MIC", "setting": "[1]", "result": 0.031, "unit": "µg/mL"}, {"measurement": "MIC", "setting": "[2]", "result": 0.062, "unit": "µg/mL"}, {"measurement": "MIC", "setting": "[3]", "result": 0.0078, "unit": "µg/mL"}]}
{"smiles": "C/C=C1\\NC(=O)[C@H]([C@@H](C)O)NC(=O)c2csc(n2)-c2cc(O)c(-c3nc(C(=O)NC(CNc4ccccc4Br)C(N)=O)cs3)nc2-c2csc(n2)[C@@H]2CSC(=O)c3[nH]c4cccc(c4c3C)COC(=O)[C@H](O)C[C@H](NC(=O)c3csc1n3)c1nc(cs1)C(=O)N2", "note": "(stereo partly drawn)", "values": [{"measurement": "MIC", "setting": "[1]", "result": 0.015, "unit": "µg/mL"}, {"measurement": "MIC", "setting": "[2]", "result": 0.015, "unit": "µg/mL"}, {"measurement": "MIC", "setting": "[3]", "result": "< 0.0039", "unit": "µg/mL"}]}
{"smiles": "C/C=C1\\NC(=O)[C@H]([C@@H](C)O)NC(=O)c2csc(n2)-c2cc(O)c(-c3nc(C(=O)NC(CNc4ccccc4F)C(N)=O)cs3)nc2-c2csc(n2)[C@@H]2CSC(=O)c3[nH]c4cccc(c4c3C)COC(=O)[C@H](O)C[C@H](NC(=O)c3csc1n3)c1nc(cs1)C(=O)N2", "note": "(stereo partly drawn)", "values": [{"measurement": "MIC", "setting": "[1]", "result": 0.015, "unit": "µg/mL"}, {"measurement": "MIC", "setting": "[2]", "result": 0.062, "unit": "µg/mL"}, {"measurement": "MIC", "setting": "[3]", "result": "< 0.0039", "unit": "µg/mL"}]}
{"smiles": "C/C=C1\\NC(=O)[C@H]([C@@H](C)O)NC(=O)c2csc(n2)-c2cc(O)c(-c3nc(C(=O)NC(CNc4cccc(Br)c4)C(N)=O)cs3)nc2-c2csc(n2)[C@@H]2CSC(=O)c3[nH]c4cccc(c4c3C)COC(=O)[C@H](O)C[C@H](NC(=O)c3csc1n3)c1nc(cs1)C(=O)N2", "note": "(stereo partly drawn)", "values": [{"measurement": "MIC", "setting": "[1]", "result": 0.031, "unit": "µg/mL"}, {"measurement": "MIC", "setting": "[2]", "result": 0.062, "unit": "µg/mL"}, {"measurement": "MIC", "setting": "[3]", "result": 0.0078, "unit": "µg/mL"}]}
{"smiles": "C/C=C1\\NC(=O)[C@H]([C@@H](C)O)NC(=O)c2csc(n2)-c2cc(O)c(-c3nc(C(=O)NC(CNc4ccccc4C(F)(F)F)C(N)=O)cs3)nc2-c2csc(n2)[C@@H]2CSC(=O)c3[nH]c4cccc(c4c3C)COC(=O)[C@H](O)C[C@H](NC(=O)c3csc1n3)c1nc(cs1)C(=O)N2", "note": "(stereo partly drawn)", "values": [{"measurement": "MIC", "setting": "[1]", "result": 0.015, "unit": "µg/mL"}, {"measurement": "MIC", "setting": "[2]", "result": 0.031, "unit": "µg/mL"}, {"measurement": "MIC", "setting": "[3]", "result": "< 0.0039", "unit": "µg/mL"}]}
{"smiles": "C/C=C1\\NC(=O)[C@H]([C@@H](C)O)NC(=O)c2csc(n2)-c2cc(O)c(-c3nc(C(=O)NC(CNc4ccc(C(F)(F)F)cc4)C(N)=O)cs3)nc2-c2csc(n2)[C@@H]2CSC(=O)c3[nH]c4cccc(c4c3C)COC(=O)[C@H](O)C[C@H](NC(=O)c3csc1n3)c1nc(cs1)C(=O)N2", "note": "(stereo partly drawn)", "values": [{"measurement": "MIC", "setting": "[1]", "result": 0.015, "unit": "µg/mL"}, {"measurement": "MIC", "setting": "[2]", "result": 0.031, "unit": "µg/mL"}, {"measurement": "MIC", "setting": "[3]", "result": "< 0.0039", "unit": "µg/mL"}]}
{"smiles": "C/C=C1\\NC(=O)[C@H]([C@@H](C)O)NC(=O)c2csc(n2)-c2cc(O)c(-c3nc(C(=O)NC(CNc4ccc(I)cc4)C(N)=O)cs3)nc2-c2csc(n2)[C@@H]2CSC(=O)c3[nH]c4cccc(c4c3C)COC(=O)[C@H](O)C[C@H](NC(=O)c3csc1n3)c1nc(cs1)C(=O)N2", "note": "(stereo partly drawn)", "values": [{"measurement": "MIC", "setting": "[1]", "result": 0.015, "unit": "µg/mL"}, {"measurement": "MIC", "setting": "[2]", "result": 0.062, "unit": "µg/mL"}, {"measurement": "MIC", "setting": "[3]", "result": "< 0.0039", "unit": "µg/mL"}]}
{"smiles": "C/C=C1\\NC(=O)[C@H]([C@@H](C)O)NC(=O)c2csc(n2)-c2cc(O)c(-c3nc(C(=O)NC(CNc4ccc(C)cc4)C(N)=O)cs3)nc2-c2csc(n2)[C@@H]2CSC(=O)c3[nH]c4cccc(c4c3C)COC(=O)[C@H](O)C[C@H](NC(=O)c3csc1n3)c1nc(cs1)C(=O)N2", "note": "(stereo partly drawn)", "values": [{"measurement": "MIC", "setting": "[1]", "result": 0.031, "unit": "µg/mL"}, {"measurement": "MIC", "setting": "[2]", "result": 0.062, "unit": "µg/mL"}, {"measurement": "MIC", "setting": "[3]", "result": 0.0078, "unit": "µg/mL"}]}
